Assay results as given in patent US10913714B2, “Pyrrole sulfonyl derivative, preparation method and medical use thereof” (JIANGSU CAREPHAR PHARMACEUTICAL CO., LTD, priority 2015, dated 2021).
Structures can show the parent of a compound that is named as a salt.

Target: T1, hERG potassium channel (Homo sapiens, UniProt Q12809)
T1 construct: expressed in transfected cells
Experiment: Whole cell patch clamp, inhibition of hERG tail current
Type: cell-based
Settings: for IC50: human, hERG cells (host cell line not named), pH 7.4, whole cell patch clamp, logistic fit; for Inhibition ratio of max. test concentration (hERG current): max. test concentration 100 μM
Description: Test Case 2: Studies on the Effect of Compounds EXP 1, TAK-438 and EXP 12 on hERG Potassium Channel Testing System 1) Cell culture: the hERG cell is cultured in a routine way, which is subcultured in a DMEM containing 10% of fetal calf serum and 250 μg/ml of G418. 2) Fluid preparation: the composition of the extracellular fluid used in the experiment of whole cell patch clamp comprises (mM): NaCl 145, MgCl21, KCl 4, Glucose 10, HEPES 10 and CaCl22; adjusting the pH value of NaOH to 7.4 and adjusting the value of osmotic pressure to 300 mOsm with sucrose. The composition of the intracellular fluid comprises (mM):KCl 140; MgCl 21; EGTA 5; HEPES 10 and Na2ATP 4; adjusting the pH value of KOH to 7.2 and adjusting the value of osmotic pressure to 290 mOsm with sucrose.
Main composition of the extracellular and intracellular fluid
Test Procedure 1) Electrophysiological recording: taking out one culture dish for each test; cleaning it with the extracellular fluid twice and placing it on the inverted microscope stage. The experiment of whole cell patch clamp is conducted at ambient temperature; the resistance at the microelectrode tip of the used borosilicate glass is 3-5 MQ. 2) Voltage stimulus plan and current record: clamping down the membrane potential to −80 mV under the whole-cell recording mode; giving +50 mV of depolarized voltage stimulus to the cell every 30 s and lasting for 2 s, then repolarizing it to −50 mV and lasting for 3 s, thus, the tail current of hERG can be extracted. Giving 50 ms, −50 mV repolarized voltage to the cell before depolarized voltage stimulus; the current recorded at such voltage is as the base line for calculating the tail current of hERG. Only the cells meet the recording standard can be used in the test of the compounds to be tested. The hERG tail current should be recorded stably at last for 3 min in the extracellular fluid before the compound is added. After perfusion of drugs, it can be regarded that the drug effect reaches a steady state if the change of the amplitude of hERG tail current is less than 5%. If the current fails to reach a steady state in 6 min, the test should also be terminated. 3) Testing standard: the membrane resistance in the experiment should be more than 1,000 MQ. The initial current should be more than 300 pA. The series resistance should be less than 12 MQ after the whole-cell recording mode is constructed. The leakage current is less than 10% of the ionic channel current (taking −80 pA as the peak value). Data Analysis
Using Clampex 10.2 to record the original data and saving the data in the format of *abf. Using pCLAMP 10.1 to conduct data collection and analysis. Selecting 4-5 sweeps when the current is in a steady state before the compound is added; calculating the average peak value to serve as the contrasted current amplitude. Selecting 4-5 sweeps when the current is in a steady state after the compound is added; calculating the average peak value to serve as the residual amplitude of the inhibited current. The inhibition ratio of the compound to be tested to hERG current is calculated as per the equation as: % inhibition ratio={1−(current residual amplitude)/(contrasted current amplitude)}*100
After the inhibition ratio (average value±standard deviation) of the compound to be tested to the hERG current of different concentrations is obtained through the above computing method, the data with logistic equation should be fitted to obtain the value of IC50.

T1 sequence (Q12809 whole entry): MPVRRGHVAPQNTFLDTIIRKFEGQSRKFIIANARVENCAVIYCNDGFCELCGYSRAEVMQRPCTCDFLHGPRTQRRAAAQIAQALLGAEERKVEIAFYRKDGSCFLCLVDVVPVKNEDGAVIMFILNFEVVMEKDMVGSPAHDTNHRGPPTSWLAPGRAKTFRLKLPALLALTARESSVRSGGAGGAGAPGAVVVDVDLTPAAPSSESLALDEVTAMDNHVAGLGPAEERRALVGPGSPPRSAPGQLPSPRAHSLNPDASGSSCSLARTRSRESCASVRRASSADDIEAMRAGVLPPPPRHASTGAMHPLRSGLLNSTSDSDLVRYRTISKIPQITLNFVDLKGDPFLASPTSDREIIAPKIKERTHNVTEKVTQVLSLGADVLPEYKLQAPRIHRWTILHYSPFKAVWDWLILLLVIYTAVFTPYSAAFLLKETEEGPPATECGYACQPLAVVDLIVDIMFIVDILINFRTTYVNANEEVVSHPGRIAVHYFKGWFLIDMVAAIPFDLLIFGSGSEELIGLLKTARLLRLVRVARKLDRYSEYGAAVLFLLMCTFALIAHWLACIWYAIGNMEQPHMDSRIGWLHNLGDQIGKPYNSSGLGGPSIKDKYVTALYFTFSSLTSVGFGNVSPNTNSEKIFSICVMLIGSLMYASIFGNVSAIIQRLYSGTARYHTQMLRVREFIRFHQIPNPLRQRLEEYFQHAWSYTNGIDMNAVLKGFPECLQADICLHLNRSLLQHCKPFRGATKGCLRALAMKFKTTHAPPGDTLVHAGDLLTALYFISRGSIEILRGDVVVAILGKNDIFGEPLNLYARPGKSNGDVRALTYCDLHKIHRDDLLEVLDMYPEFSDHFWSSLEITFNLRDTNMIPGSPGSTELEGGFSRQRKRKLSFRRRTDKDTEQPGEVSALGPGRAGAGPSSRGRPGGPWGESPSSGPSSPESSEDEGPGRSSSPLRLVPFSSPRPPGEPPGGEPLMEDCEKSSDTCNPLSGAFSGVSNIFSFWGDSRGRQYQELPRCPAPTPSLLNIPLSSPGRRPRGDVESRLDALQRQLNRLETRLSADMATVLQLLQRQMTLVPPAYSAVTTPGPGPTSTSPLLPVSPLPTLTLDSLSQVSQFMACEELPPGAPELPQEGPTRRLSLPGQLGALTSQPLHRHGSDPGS

| SMILES | IC50 | Inhibition ratio of max. test concentration (hERG current) |
| --- | --- | --- |
| CNCc1cc(-c2ccccc2F)n(S(=O)(=O)c2cccc(OCCCOC)c2)c1 [EXP 1, 1-(5-(2-fluorobenzene)-1-((3-(3-methoxypropoxy)phenyl)sulfonyl)-1H-pyrrole-3-yl)-N-methyl methylamine] | 18.7 µM | 86.21 ± 1.67% |
| CNCc1cc(-c2ccccc2F)n(S(=O)(=O)c2cccnc2)c1 [TAK-438, 5-(2-fluorophenyl)-N-methyl-1-(3-pyridylsulfonyl)-1H-pyrrole-3-methamine fumarate] | 15.9 µM | 88.23 ± 3.18% |
